Experimental data from paper doi:10.1101/2024.04.09.588698v1 (biorxiv, 2024).
Where a chain is given by its changes, count along the chain named.

Columns and labels:
[1] = biological target: T1, Htc10-LBD (Vreelandella titanicae, UniProt L9UCI1); details: Biolog plate screen, est. 3-6 mM; binder
T1 sequence (L9UCI1 48-325): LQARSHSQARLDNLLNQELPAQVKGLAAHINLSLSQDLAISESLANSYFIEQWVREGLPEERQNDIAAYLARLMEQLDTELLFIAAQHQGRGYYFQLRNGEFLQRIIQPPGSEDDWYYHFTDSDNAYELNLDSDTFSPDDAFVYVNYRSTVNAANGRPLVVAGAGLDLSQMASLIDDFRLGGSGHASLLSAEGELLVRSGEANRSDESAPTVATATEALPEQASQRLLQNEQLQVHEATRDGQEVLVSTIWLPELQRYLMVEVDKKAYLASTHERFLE

[2] = biological target: T1, Htc10-LBD; assay: biochemical; details: read-out: ΔTm (ºC) 10 mM solution
[3] = biological target: T1, Htc10-LBD; assay: isothermal titration calorimetry; format: binding
[4] = biological target: T2, Htc10-LBD (Vreelandella titanicae, UniProt L9UCI1, D179A/N177A/Y141F); assay: isothermal titration calorimetry; format: binding
T2 sequence (L9UCI1 48-325 Y141F/N177A/D179A): T1 sequence (L9UCI1 48-325) with Y94F, N130A, D132A

[5] = biological target: T1, Htc10-LBD; assay: biochemical
[6] = biological target: T3, Htc10-LBD (Vreelandella titanicae, UniProt L9UCI1, Y141F); assay: isothermal titration calorimetry; format: binding
T3 sequence (L9UCI1 48-325 Y141F): T1 sequence (L9UCI1 48-325) with Y94F

SMILES | ΔTm (ºC) Biolog plates [1] | ΔTm at 10000 µM [2] | also measured
Nc1nc2c(ncn2[C@@H]2O[C@H](CO)[C@@H](O)[C@H]2O)c(=O)[nH]1 [Guanosine] | 2.5 degC | 0.5 °C | 
Cc1cn([C@H]2C[C@H](O)[C@@H](CO)O2)c(=O)[nH]c1=O [Thymidine] | 2.0 degC | 0 °C | 
Cc1c[nH]c(=O)[nH]c1=O [Thymine] | 2.0 degC | 1.7 °C | 
O=c1cc[nH]c(=O)[nH]1 [Uracil] |  | 3 °C | 
Nc1nc2nc[nH]c2c(=O)[nH]1 [guanine] |  | 6 °C | Kd [3]: 7 ± 0.6 µM; Kd [4]: 118 ± 9 µM; ΔTm at 600 µM ([5]; read-out: ΔTm (ºC) gua): 5.2 °C; Kd [6]: 25 ± 2 µM
O=c1[nH]cnc2nc[nH]c12 [hypoxanthine] | 8.0 degC | 16 °C | Kd [3]: 2.5 ± 0.3 µM; Kd [4]: 140 ± 9 µM; ΔTm at 500 µM ([5]; read-out: ΔTm (ºC) hyp): 10.6 °C; Kd [6]: 13.9 ± 0.9 µM

The next lines start with results.

ΔTm (ºC) Biolog plates [1] | ΔTm at 10000 µM [2] | SMILES | also measured
6.5 degC |  | O=c1[nH]cnc2c1ncn2[C@H]1C[C@H](O)[C@@H](CO)O1 [2-deoxy-inosine] | 
 | 3 °C | O=c1[nH]cnc2c1ncn2[C@@H]1O[C@H](CO)[C@@H](O)[C@H]1O [Inosine] | 
2.5 degC | -8 °C | O=c1[nH]c(=O)c2nc[nH]c2[nH]1 [Xanthine] | 
